Consider 3 molecules from patent US11850331B2, “Devices with anti-thrombogenic and anti-microbial treatment” (TELEFLEX MEDICAL INCORPORATED, priority 2013, dated 2023).

Data set [1] has as its system human blood. As to the kind of experiment: Thrombin clotting time in whole blood, alexidine solutions (Example 1). It is filed as biochemical. The conditions noted are these: partial clotting. The method, then:
Solutions of varying alexidine concentrations (50-300 micrograms/mL) were incubated in individual test tubes, each containing 0.50 mL of human blood. The human blood was supplemented with 3.8% sodium citrate. The incubation was for 1 hour on a gyratory shaker set at 24 rpm and 37 degrees C. After 1 hour, 10 microliters of 500 Units/mL thrombin, and 60 microliters of 200 mM CaCl2 was added to each of the incubating blood samples. Blood clotting time was then measured using a stop watch. Table 1 discloses the results.

The subject of data set [2] is human blood. Briefly: Fluid phase thrombin clotting time, alexidine versus chlorhexidine (Example 4). It is filed as biochemical. The following applies: for clotting time: 6.25 ug/mL; for Thrombin Clotting Time in whole blood: replicates 1-5. Here is the method: The following provides a side-by-side comparison of alexidine with chlorhexidine. Fluid phase experiments were conducted to compare the influences of alexidine and chlorhexidine on thrombin clotting time (Table 6). […] The reaction mixtures contained freshly drawn human blood, alexidine or chlorhexidine as indicated, and exogenously added thrombin. The experiment was repeated five times, as indicated by replicates 1-5. The concentrations of alexidine or chlorhexidine that were used in the experiments were zero ug/mL (baseline), 3.125, 6.25, 12.5, 25, 50, or 100 ug/mL, as indicated. […] This dramatic difference was also observed when higher concentrations of antimicrobials were used in the clotting reactions.

The conditions of data set [3]: background statement; cited from earlier work.

Regarding `CCCCC(CC)CNC(=N)NC(=N)NCCCCCCNC(=N)NC(=N)NCC(CC)CCCC` (stereo not shown) [alexidine], the “Thrombin Clotting Time in whole blood” value with human blood [1] (0.2 mg/mL alexidine) was “Greater than 72 hours (partial clotting)”; in the data set on human blood [1] (0.3 mg/mL alexidine), “Greater than 72 hours (partial clotting)”; in the data set with human blood [2] (12.5 μg/mL), more than 24 h; with human blood [2] (25 μg/mL) it was more than 24 h; in the data set with human blood [2] (50 μg/mL), more than 24 h; in the data set with human blood [2] (100 μg/mL), more than 24 h. The clotting time entry with human blood [2] was “about five”. Besides, the “potency in inhibiting blood clotting relative to chlorhexidine” value with human blood [2] (thrombin clotting time, fluid phase) is “four times more potent”. In addition, in data set [3], the solubility in water result is “relatively low solubility in water”.

In the case of `N=C(NCCCCCCNC(=N)NC(=N)Nc1ccc(Cl)cc1)NC(=N)Nc1ccc(Cl)cc1.O=C(O)[C@H](O)[C@@H](O)[C@H](O)[C@H](O)CO.O=C(O)[C@H](O)[C@@H](O)[C@H](O)[C@H](O)CO` [CHG, chlorhexidine gluconate], the solubility in water result in data set [3] is reported as “highly soluble in water”.

For the molecule `[H]/N=C(\N/C(=N/[H])NCCCCCCNC(=N)NC(=N)Nc1ccc(Cl)cc1)Nc1ccc(Cl)cc1` [chlorhexidine], in the data set with human blood [2], the clotting time entry was “about thirty”. Moreover, the “Thrombin Clotting Time in whole blood” value in the data set with human blood [2] (50 μg/mL) and in the data set on human blood [2] (100 μg/mL) was more than 24 h each time.
